pIC50: −log10 of the molar value.
Tests used:
human sperm = details: 4 mM, 2-hour incubation, N=29, P<0.01
Method: A 10 mM stock solution of the drug was made up in 100% DMSO. This was then serially diluted to a working concentration of 3 μM using sEBSS as the diluent and stored at 4° C. The drug or vehicle was then added to the neutrophils and placed in a 37° C. water bath for 10 min. The neutrophils were then added to the sperm in sperm-safe 5 mL Polystyrene round bottom tubes (Falcon) at a ratio of about 1:3. Zymosan at a final concentration of 1 μg/ml was added to activate the neutrophils and incubated for 2 hours at 37° C.
Following the 2 h incubation with activated neutrophils, aliquots of 50 μL were taken from all 4 conditions and transferred into 1.5 mL Eppendorf tubes. H2O2 was used as a positive control. An extra aliquot for a secondary only control was taken from the sperm only tube. The cells (except the secondary only tube) were incubated for 0.5 h at 37° C. with an anti-malondialdehyde (MDA) antibody (ab27642, abcam, Cambridge) at a working ratio of 1:50 (Moazamian R, Polhemus A, Connaughton H, Fraser B, Whiting S, Gharagozloo P, Aitken R J. Mol Hum Reprod 2015; 21(6):502-15). […] The level of MDA staining in each condition was then assessed in 10,000 cells using a pre-validated flow cytometry program in a BD LSRFortessa cell analyser. Due to a technical error one sample was unable to be assessed using flow cytometry.

human MPO = target: T1, human MPO (Homo sapiens, UniProt P05164); assay: MPO inhibition; assay type: biochemical; details: read-out: IC50, irreversible inhibitor of human MPO
T1 sequence (P05164 49-745): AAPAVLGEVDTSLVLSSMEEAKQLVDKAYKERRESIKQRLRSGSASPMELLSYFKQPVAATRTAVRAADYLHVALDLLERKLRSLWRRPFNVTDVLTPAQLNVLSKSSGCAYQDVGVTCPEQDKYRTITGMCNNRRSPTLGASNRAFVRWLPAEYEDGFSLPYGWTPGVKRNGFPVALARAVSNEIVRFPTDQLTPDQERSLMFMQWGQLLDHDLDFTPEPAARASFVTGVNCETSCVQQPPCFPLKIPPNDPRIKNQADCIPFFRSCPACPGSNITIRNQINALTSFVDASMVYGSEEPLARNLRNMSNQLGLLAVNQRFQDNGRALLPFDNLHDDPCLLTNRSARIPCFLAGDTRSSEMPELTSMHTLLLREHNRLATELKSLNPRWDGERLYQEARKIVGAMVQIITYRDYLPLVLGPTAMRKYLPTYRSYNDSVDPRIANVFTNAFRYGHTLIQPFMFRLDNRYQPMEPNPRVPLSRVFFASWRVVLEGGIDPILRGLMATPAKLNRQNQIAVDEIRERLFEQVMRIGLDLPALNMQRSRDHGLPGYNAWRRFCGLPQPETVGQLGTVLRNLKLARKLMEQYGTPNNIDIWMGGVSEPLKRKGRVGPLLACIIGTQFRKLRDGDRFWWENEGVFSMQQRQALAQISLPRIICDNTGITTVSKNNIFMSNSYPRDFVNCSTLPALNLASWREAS

[1] = test system: isolated human neutrophils; assay: PMA stimulated HOCl in isolated neutrophils; assay type: cell-based; details: Neutrophil
[2] = test system: in situ zymosan activated peritoneum neutrophils; assay: In vivo glutathione sulphonamide formation; parameters: species or system rat; details: rats, plasma concentration of ~5 μM
[3] = Phase 1 studies in healthy volunteers, adverse events; assay type: in vivo, human; details: oral, single doses up to 1200 mg (1400 mg ER), multiple up to 325 mg TID (600 mg BID 10 days ER), 181 subjects
[4] = test system: human sperm with activated human neutrophils; assay: Sperm motility assessment (Hamilton-Thorn CASA) with activated neutrophils; assay type: cell-based; details: 3 μM
Method: (§1) The neutrophils were then added to the sperm in sperm-safe 5 mL Polystyrene round bottom tubes (Falcon) at a ratio of about 1:3.
Sperm motility was assessed using the Hamilton-Thorn CASA system. For each condition, a total of 200 cells were counted in at least four different fields of view. Where a sample had very low motility at least 100 cells were counted. The motility parameters were assessed at the start of the co-incubation with neutrophils (time 0), after 2 h and after 24 h. Motility was expressed as a percentage different between time 0 and after 2 h and percentage difference after time 0 and after 24 h for each time point for each sample.

[5] = test system: human sperm with activated human neutrophils; assay: Kremer penetration assay; assay type: cell-based; details: 3 μM
Method: as §1
The Kremer penetration test assesses a sperm cell's ability to penetrate and swim through viscous media. This test is also known as the sperm-cervical mucus penetration test. A cervical mucus substitute was made up using 1% methyl cellulose dissolved in capacitating media. The solution was gassed in a 37° C. 5% CO2 incubator for 20 min. Then flat capillary tubes (Rectangle Boro Tubing, CM Scientific) were placed in the methyl cellulose solution for a further 20 min to allow the media to flow up the capillary tubes. After the 2 h incubation, 100 μL from each condition was aliquoted into a fresh sperm safe tube. One end of each tube was then blocked using plasticine and then one tube was placed open end first into each test condition. Each sperm safe tube containing a capillary tube was incubated 1 hour at 37° C. with 5% CO2. After 1 h, the capillary tubes were removed and the number of cells at 1 cm mark were counted manually. The results were expressed as a ratio to control (sperm only).

Structure (SMILES) | MDA staining versus the other conditions (human sperm) | pIC50 (human MPO) | inhibition at 1 µM [1] [%] | in vivo formation of glutathione sulphonamide [2] | drug-related adverse events [3] | absolute change in overall sperm motility from baseline to 2 h and 24 h ([4]; first 11 subjects, vs vehicle, two-tailed t-test P=0.09) | percentage differences between CASA measurements at time zero and after 24-hour incubation (motility, progressive, rapid, VAP, VSL, VCL, ALH) ([4]; n=29, vs vehicle, not statistically significant (P>0.1)) | patients with clinically-relevant beneficial effect ([5]; 29 patients evaluated) | sperm found at 1 cm versus vehicle ([5]; 2 h incubation, n=29, p=0.02) | further subjects showing a smaller improvement ([5]; of 29 patients) | subjects with clinically-relevant improvement in sperm penetration ([5]; of the 29 subjects)
OO [H2O2, hydrogen peroxide] | stained significantly more |  |  |  |  |  |  |  |  |  | 
O=c1[nH]c(=S)n(C[C@H]2CCCO2)c2nc[nH]c12 [AZD5904, 3-[[(2R)-tetrahydrofuran-2-yl]methyl]-2-thioxo-7H-purin-6-one] |  | 6.85 | > 90 | decreased | No overtly drug-related adverse event | statistical trend | positive trend | over 50% | significantly more sperm | 8 | 15

— US11738027B2, “MPO inhibitors for use in medicine” (AstraZeneca AB, priority 2017, dated 2023)
